{"source": "patent US20260265249A1", "about": "“PHARMACEUTICALLY ACCEPTABLE SALT AND CRYSTAL FORM OF 1,4-DIHYDRO-1,6-NAPHTHYRIDINE AMIDE COMPOUND AND PREPARATION METHOD THEREFOR” (JIANGSU HENGRUI PHARMACEUTICALS CO., LTD., priority 2023, published 2026)", "format_in_all_cases": "physicochemical", "key": {"[1]": {"assay": "Long-term/accelerated stability study (sealed in aluminum foil bags, 25° C./60% RH and 40° C./75% RH)"}, "[2]": {"assay": "DVS (dynamic vapor sorption) hygroscopicity test", "excerpt": "According to the description of hygroscopicity characteristics and the definitions of hygroscopic weight gains in “General Rule 9103, Guidelines for Hygroscopicity” in the Chinese Pharmacopoeia, Volume IV, 2015 Edition, • deliquescent: sufficient water is absorbed to form a liquid; • extremely hygroscopic: the hygroscopic weight gain is not less than 15%; • hygroscopic: the hygroscopic weight gain is less than 15% but not less than 2%; • slightly hygroscopic: the hygroscopic weight gain is less than 2% but not less than 0.2%; • nonhygroscopic or practically nonhygroscopic: the hygroscopic weight gain is less than 0.2%.\nTGA refers to thermogravimetric analysis: The analysis was performed using a METTLER TOLEDO TGA 2 thermogravimetric analyzer, with a temperature ramp rate of 10° C./min, specific temperature ranges shown in corresponding patterns (mostly 30-350° C.), and a nitrogen purge speed of 50 mL/min. DVS refers to dynamic vapor sorption: The analysis was performed using SMS DVS Advantage; at 25° C., the humidity was changed as follows: 50%-95%-0%-95%-50%, in steps of 10% (5% for the last step) (specific humidity ranges are shown in corresponding patterns, and those listed here were used in most cases); the criterion was dm/dt being not greater than 0.002%."}, "[3]": {"assay": "Influencing factor stability study (open containers; light, high temperature, high humidity; 30 days)"}, "[4]": {"settings": "25° C.-60% RH, sealed aluminum foil bag, 1 month"}, "[5]": {"settings": "25° C.-60% RH, sealed aluminum foil bag, 2 months"}, "[6]": {"settings": "25° C.-60% RH, sealed aluminum foil bag, 3 months"}, "[7]": {"settings": "25° C.-60% RH, sealed aluminum foil bag, 6 months"}, "[8]": {"settings": "40° C.-75% RH, sealed aluminum foil bag, 1 month"}, "[9]": {"settings": "40° C.-75% RH, sealed aluminum foil bag, 2 months"}, "[10]": {"settings": "40° C.-75% RH, sealed aluminum foil bag, 3 months"}, "[11]": {"settings": "40° C.-75% RH, sealed aluminum foil bag, 6 months"}, "[12]": {"settings": "accelerated experimental conditions, 70% RH"}, "[13]": {"settings": "normal storage conditions, 25° C. and 60% RH"}, "[14]": {"settings": "open container, 60° C., 1 month"}, "[15]": {"settings": "open container, 60° C., 14 days"}, "[16]": {"settings": "open container, 75% RH, 1 month"}, "[17]": {"settings": "open container, 75% RH, 14 days"}, "[18]": {"settings": "open container, 92.5% RH, 1 month"}, "[19]": {"settings": "open container, 92.5% RH, 7 days"}, "[20]": {"settings": "open container, 92.5% RH, 14 days"}, "[21]": {"settings": "open container, light exposure (4500 Lux), 7 days"}, "[22]": {"settings": "open container, light exposure (4500 Lux), 14 days"}, "[23]": {"settings": "open container, 40° C., 1 month"}, "[24]": {"settings": "open container, 40° C., 14 days"}, "[25]": {"settings": "open container, light exposure (4500 Lux), 1 month"}}, "data": [{"compound": "Br.[2H]C([2H])([2H])Oc1cc(C#N)ccc1[C@@H]1C(C(N)=O)=C(C)Nc2c(C)cnc(OCC)c21", "note": "[crystal form I of hydrobromide]", "values": [{"measurement": "Purity (%)", "setting": "[1]; 0 days (initial)", "result": 99.7, "unit": "%"}, {"measurement": "Crystal form", "setting": "[1]; [4]", "result": "No change"}, {"measurement": "Purity (%)", "setting": "[1]; [4]", "result": 99.8, "unit": "%"}, {"measurement": "Crystal form", "setting": "[1]; [5]", "result": "No change"}, {"measurement": "Purity (%)", "setting": "[1]; [5]", "result": 99.7, "unit": "%"}, {"measurement": "Crystal form", "setting": "[1]; [6]", "result": "No change"}, {"measurement": "Purity (%)", "setting": "[1]; [6]", "result": 99.7, "unit": "%"}, {"measurement": "Crystal form", "setting": "[1]; [7]", "result": "No change"}, {"measurement": "Purity (%)", "setting": "[1]; [7]", "result": 99.7, "unit": "%"}, {"measurement": "Crystal form", "setting": "[1]; [8]", "result": "No change"}, {"measurement": "Purity (%)", "setting": "[1]; [8]", "result": 99.6, "unit": "%"}, {"measurement": "Crystal form", "setting": "[1]; [9]", "result": "No change"}, {"measurement": "Purity (%)", "setting": "[1]; [9]", "result": 99.4, "unit": "%"}, {"measurement": "Crystal form", "setting": "[1]; [10]", "result": "No change"}, {"measurement": "Purity (%)", "setting": "[1]; [10]", "result": 97.9, "unit": "%"}, {"measurement": "Crystal form", "setting": "[1]; [11]", "result": "No change"}, {"measurement": "Purity (%)", "setting": "[1]; [11]", "result": 97.9, "unit": "%"}, {"measurement": "long-term/accelerated stability (conclusion)", "setting": "[1]; under long-term conditions", "result": "stable"}, {"measurement": "hygroscopic weight gain", "setting": "[2]; [12]", "result": "about 13.2%"}, {"measurement": "crystal form re-identified after the DVS test", "setting": "[2]", "result": "did not change"}, {"measurement": "hygroscopic weight gain", "setting": "[2]; extreme conditions, 90% RH", "result": "about 13.8%"}, {"measurement": "hygroscopic weight gain", "setting": "[2]; [13]", "result": "about 12.8%"}, {"measurement": "Crystal form", "setting": "[3]; [14]", "result": "No change"}, {"measurement": "Purity", "setting": "[3]; [14]", "result": 98.2, "unit": "%"}, {"measurement": "Crystal form", "setting": "[3]; open container, 60° C., 7 days", "result": "No change"}, {"measurement": "Purity", "setting": "[3]; open container, 60° C., 7 days", "result": 99.2, "unit": "%"}, {"measurement": "Crystal form", "setting": "[3]; [15]", "result": "No change"}, {"measurement": "Purity", "setting": "[3]; [15]", "result": 99.0, "unit": "%"}, {"measurement": "Crystal form", "setting": "[3]; [16]", "result": "No change"}, {"measurement": "Purity", "setting": "[3]; [16]", "result": 99.6, "unit": "%"}, {"measurement": "Crystal form", "setting": "[3]; open container, 75% RH, 7 days", "result": "No change"}, {"measurement": "Purity", "setting": "[3]; open container, 75% RH, 7 days", "result": 99.7, "unit": "%"}, {"measurement": "Crystal form", "setting": "[3]; [17]", "result": "No change"}, {"measurement": "Purity", "setting": "[3]; [17]", "result": 99.6, "unit": "%"}, {"measurement": "Crystal form", "setting": "[3]; [18]", "result": "No change"}, {"measurement": "Crystal form", "setting": "[3]; [19]", "result": "No change"}, {"measurement": "Purity", "setting": "[3]; [19]", "result": 99.7, "unit": "%"}, {"measurement": "Crystal form", "setting": "[3]; [20]", "result": "No change"}, {"measurement": "Crystal form", "setting": "[3]; [21]", "result": "No change"}, {"measurement": "Crystal form", "setting": "[3]; [22]", "result": "No change"}]}, {"compound": "O=S(=O)(O)O.[2H]C([2H])([2H])Oc1cc(C#N)ccc1[C@@H]1C(C(N)=O)=C(C)Nc2c(C)cnc(OCC)c21", "note": "[crystal form a of sulfate]", "values": [{"measurement": "Purity (%)", "setting": "[1]; 0 days (initial)", "result": 99.7, "unit": "%"}, {"measurement": "Crystal form", "setting": "[1]; [4]", "result": "No change"}, {"measurement": "Purity (%)", "setting": "[1]; [4]", "result": 99.7, "unit": "%"}, {"measurement": "Crystal form", "setting": "[1]; [5]", "result": "No change"}, {"measurement": "Purity (%)", "setting": "[1]; [5]", "result": 99.7, "unit": "%"}, {"measurement": "Crystal form", "setting": "[1]; [6]", "result": "No change"}, {"measurement": "Purity (%)", "setting": "[1]; [6]", "result": 99.8, "unit": "%"}, {"measurement": "Crystal form", "setting": "[1]; [7]", "result": "No change"}, {"measurement": "Purity (%)", "setting": "[1]; [7]", "result": 99.7, "unit": "%"}, {"measurement": "Crystal form", "setting": "[1]; [8]", "result": "No change"}, {"measurement": "Purity (%)", "setting": "[1]; [8]", "result": 99.6, "unit": "%"}, {"measurement": "Crystal form", "setting": "[1]; [9]", "result": "No change"}, {"measurement": "Purity (%)", "setting": "[1]; [9]", "result": 99.7, "unit": "%"}, {"measurement": "Crystal form", "setting": "[1]; [10]", "result": "No change"}, {"measurement": "Purity (%)", "setting": "[1]; [10]", "result": 99.6, "unit": "%"}, {"measurement": "Crystal form", "setting": "[1]; [11]", "result": "No change"}, {"measurement": "Purity (%)", "setting": "[1]; [11]", "result": 99.6, "unit": "%"}, {"measurement": "long-term/accelerated stability (conclusion)", "setting": "[1]; storage under long-term accelerated conditions for 6 months", "result": "good physical and chemical stability"}, {"measurement": "hygroscopic weight gain", "setting": "[2]; [12]", "result": "about 1.9%"}, {"measurement": "crystal form re-identified after the DVS test", "setting": "[2]", "result": "did not change"}, {"measurement": "hygroscopic weight gain", "setting": "[2]; extreme conditions, 90% RH", "result": "about 3.1%"}, {"measurement": "hygroscopic weight gain", "setting": "[2]; [13]", "result": "about 1.6%"}, {"measurement": "Crystal form", "setting": "[3]; 0 days", "result": "Crystal form a of sulfate"}, {"measurement": "Purity", "setting": "[3]; 0 days", "result": 99.7, "unit": "%"}, {"measurement": "Crystal form", "setting": "[3]; [23]", "result": "No change"}, {"measurement": "Purity", "setting": "[3]; [23]", "result": 98.5, "unit": "%"}, {"measurement": "Crystal form", "setting": "[3]; open container, 40° C., 7 days", "result": "No change"}, {"measurement": "Purity", "setting": "[3]; open container, 40° C., 7 days", "result": 99.4, "unit": "%"}, {"measurement": "Crystal form", "setting": "[3]; [24]", "result": "No change"}, {"measurement": "Purity", "setting": "[3]; [24]", "result": 98.8, "unit": "%"}, {"measurement": "Crystal form", "setting": "[3]; [14]", "result": "No change"}, {"measurement": "Purity", "setting": "[3]; [14]", "result": 97.9, "unit": "%"}, {"measurement": "Crystal form", "setting": "[3]; open container, 60° C., 7 days", "result": "No change"}, {"measurement": "Purity", "setting": "[3]; open container, 60° C., 7 days", "result": 99.2, "unit": "%"}, {"measurement": "Crystal form", "setting": "[3]; [15]", "result": "No change"}, {"measurement": "Purity", "setting": "[3]; [15]", "result": 98.7, "unit": "%"}, {"measurement": "Crystal form", "setting": "[3]; [16]", "result": "No change"}, {"measurement": "Purity", "setting": "[3]; [16]", "result": 99.7, "unit": "%"}, {"measurement": "Crystal form", "setting": "[3]; open container, 75% RH, 7 days", "result": "No change"}, {"measurement": "Purity", "setting": "[3]; open container, 75% RH, 7 days", "result": 99.7, "unit": "%"}, {"measurement": "Crystal form", "setting": "[3]; [17]", "result": "No change"}, {"measurement": "Purity", "setting": "[3]; [17]", "result": 99.6, "unit": "%"}, {"measurement": "Crystal form", "setting": "[3]; [18]", "result": "No change"}, {"measurement": "Purity", "setting": "[3]; [18]", "result": 99.7, "unit": "%"}, {"measurement": "Crystal form", "setting": "[3]; [19]", "result": "No change"}, {"measurement": "Purity", "setting": "[3]; [19]", "result": 99.6, "unit": "%"}, {"measurement": "Crystal form", "setting": "[3]; [20]", "result": "No change"}, {"measurement": "Purity", "setting": "[3]; [20]", "result": 99.7, "unit": "%"}, {"measurement": "Crystal form", "setting": "[3]; [25]", "result": "No change"}, {"measurement": "Purity", "setting": "[3]; [25]", "result": 98.1, "unit": "%"}, {"measurement": "Crystal form", "setting": "[3]; [21]", "result": "No change"}, {"measurement": "Purity", "setting": "[3]; [21]", "result": 99.2, "unit": "%"}, {"measurement": "Crystal form", "setting": "[3]; [22]", "result": "No change"}, {"measurement": "Purity", "setting": "[3]; [22]", "result": 98.9, "unit": "%"}]}]}
